Data on 1 molecule can be found in patent EP4380555B1, “COMPOSITION COMPRISING D-MANNOSE, N-ACETYLCYSTEINE AND PALMITOYLETHANOLAMIDE AND ITS USE FOR THE TREATMENT OF URIRNARY TRACT INFECTIONS” (Agave S.r.l., priority 2021, dated 2023).

Common to all, as to format: cell-based
For assay [1], the system named is Escherichia coli. Nature of the assay: Minimum biofilm inhibitory concentration (MBIC), crystal violet staining, comparison with fosfomycin. To be noted: E. coli; 24 h. As for the experimental part: (§1) The capacity of the product Comp. […] The formation of the biofilm was viewed by means of Crystal Violet staining, wherein the stain penetrates the bacterial cells and turns them purple. To determine the MBIC, 48-well plates were utilised. 200 µL of the sample, prepared at a concentration of 2x with respect to the maximum concentration being tested, was dispensed into the first well and 100 µL of medium was added to the subsequent wells, performing serial dilutions of 1:2 up to the 8th well. Finally, 100 µL of each microorganism at a concentration of 10^5 were inoculated into each well. The biofilm inhibition activity of the fosfomycin, at a lower concentration with respect to the MIC value measured in Example 10, was also assessed and the sterility and growth tests were performed for each microorganism. The multiwell plates were incubated at 37°C for 24 hours and then the supernatant present was removed, together with the planktonic bacteria not attached to the plate. The biofilm was then washed 3 times with PBS and subsequently the cells were fixed by means of incubation at 60°C for 2 hours, before being stained with crystal violet. The crystal violet staining was performed to assess the effect of the product and the fosfomycin on the formation of the biofilm. 50 µL crystal violet dissolved in deionised water was dispensed into each well and, after 5 minutes of incubation at room temperature, each well was finally washed three times with PBS 1x. The biofilm inhibition activity was viewed by microscopic observation under stereomicroscope and optical microscope using the phase-contrast method. The final concentrations tested for each sample are stated in Table 3. Table 3 [table]

Assay [2] concerns Enterococcus faecium. Described as above. The conditions noted are these: E. faecium; 24 h. As for the experimental part: as §1
The subject of assay [3] is Klebsiella pneumoniae. The description is as above. To be noted: K. pneumoniae; 24 h. The method, then:
as §1

Assay [4] has as its system Escherichia coli (DSM 1576). Description: MIC determination by broth dilution (CLSI M07), 96-well plates. To be noted: Escherichia coli, DSM1576; E. coli, 37°C, 24 h. The method, then:
(§2) The antimicrobial activity of the product Comp. 1 in Example 10 was tested in vitro according to method CLSI M07 "Methods for dilution Antimicrobial susceptibility tests for bacteria that grow aerobically".
(§3) For this purpose, the MIC (Minimum Inhibitory Concentration) values were determined with respect to the main microorganisms responsible for urinary tract infections.
(§4) More specifically, the microorganisms utilised were: Escherichia coli (DSM 1576), Klebsiella pneumoniae (DSM 30104), and Enterococcus faecalis(DSM 20477).
(§5) For each experiment conducted, the bacteria stated above were revived from a cell bank stored at -80°C. […]
(§6) The assay to determine the MIC was conducted in 96-well plates testing 12 concentrations (serial dilutions) of each sample. 200 µL of the sample, prepared at a concentration of 2x with respect to the maximum concentration being tested, was dispensed into the first well and 100 µL medium was added to the subsequent wells, performing serial dilutions of 1:2 up to 12th well. Finally, 100 µL of each microorganism at a concentration of 10^5 was inoculated into each well.
(§7) Two antibiotics were used as controls: Fosfomycin (Sigma) and Ceftriaxone (Sigma) at different final concentrations based on the microorganism utilised; both the antibiotics were dissolved in sterile water and then filtered with 0.22 µm filters.
(§8) Growth was tested and the sterility of the medium and of the product was tested. The antimicrobial activity of the D-mannose was also assessed individually. The plates thus prepared were incubated at 37°C for 24h and the results were then observed (Figure 1). The final concentrations tested for each product analysed are stated in Table 2.
On the technique in general: Broth dilution looks for growth in wells or tubes with falling amounts of substance.

Assay [5] relates to Klebsiella pneumoniae (DSM 30104). Described as above. The conditions noted are these: Klebsiella pneumoniae, DSM30104; Klebsiella, 37°C, 24 h. As for the experimental part:
as §2, §3, §4, §5, §6, §7, §8

Assay [6] relates to Escherichia coli. Description: Minimum biofilm eradication concentration (MBEC), 72 h preformed biofilm, crystal violet staining. The conditions noted are these: E.coli; fosfomycin 30000-234.38 µg/mL tested. The method, then:
(§9) To determine the minimum biofilm eradication concentration, 48-well plates were utilised. The microorganisms were incubated for 72 h at 37°C to allow the formation of the biofilm. Once formed, the biofilm was treated with fosfomycin and with the product Comp. 1 in Example 10. In particular, after the formation of the biofilm, the supernatant was suctioned and replaced with solutions containing gradually decreasing concentrations of product or of fosfomycin. The plates thus prepared were incubated for 24 h at 37°C. At the end of the incubation time, the supernatant present in each well was removed, together with the bacteria that was not attached to the plate and, after washing, the plates were incubated at 60°C for 2 hours to fix the cells before the staining with crystal violet. The crystal violet staining was performed to assess the effect of the product and the fosfomycin on the removal of the biofilm. 50 µL crystal violet dissolved in deionised water was dispensed into each well. After 5 minutes of incubation at room temperature, each well was washed three times with PBS 1x. The biofilm eradication activity was viewed under microscopic observation (Figures 7-9). The final concentrations tested for each product are stated in Table 4 Table 4 [table]

Assay [7] concerns Enterococcus faecium. The assay is described as above. The conditions noted are these: E. faecium; fosfomycin 3000-23.44 µg/mL tested. As for the experimental part:
as §9

The subject of assay [8] is Klebsiella pneumoniae. Described as above. To be noted: K. pneumoniae; 72 h biofilm, 24 h treatment. The method, then: as §9
The subject of assay [9] is Enterococcus faecium. Description: MIC determination by broth dilution (CLSI M07), 96-well plates. To be noted: Enterococcus faecium; E. faecium, 37°C, 24 h.

≈ marks a conversion by molar mass, not a printed value. Where only a bound is given, the exact number is not on record here.

Turning to `C[C@@H]1O[C@@H]1P(=O)(O)O` [fosfomycin, Fosfomycin], the “concentrations with a biofilm inhibition effect” value in the assay with Escherichia coli [1] and with Klebsiella pneumoniae [3] was at least 78 µg/mL each time. Moreover, the “concentration necessary for biofilm inhibition effect” value in the assay on Enterococcus faecium [2] is on record as “at least 321 µg/mL”. The MIC in [4] came out at 19.5 µg/mL (≈ 141 µM); in [5], 5000 µg/mL (≈ 36200 µM); against Enterococcus faecium [9], 78.1 µg/mL (≈ 566 µM). The biofilm eradication effect entry with Escherichia coli [6] and in the assay with Enterococcus faecium [7] was “did not seem to have a biofilm eradication effect” throughout. Also, in the assay with Klebsiella pneumoniae [8], the “concentrations with biofilm eradication activity” value is “greater than 468 µg/mL”.

A word on the MIC: it is the lowest concentration that inhibits growth of the organism. A high value points to a less susceptible organism.
